From patent US9157917B2, “Applications of Indoloindole and Indoloquinoline dyes” (Biosynth AG, priority 2010, dated 2015)

Columns and labels:
[1] = system: E. coli; assay: Fluorescence of Aldol 495 nonanoate in nutrient broth cultures; assay type: cell-based
[2] = Fluorescence of Aldol 495 nonanoate in nutrient broth, sterile control; assay type: physicochemical
[3] = system: various bacterial strains; assay: Nonanoate indicators in buffered peptone water in polystyrene plates; assay type: cell-based; conditions: 0.4 mM, polystyrene plate, 37° C., 48 hours, excitation 360 nm, emission 560 nm
Protocol: Buffered peptone water containing either 0.4 mM Aldol™ 495 nonanoate or 0.2 mM 4-methylumbelliferyl nonanoate was dispensed in a microtiter plate and inoculated with about 700 cfu/ml of various bacterial strains. […] An excitation wavelength of 360 nm was used for both dyes, the emission wavelength was 560 nm for the Aldol™ 495 dye and 460 nm for the 4-methylumbelliferone.

[4] = system: Salmonella; assay: Salmonella grown in medium with precursor emulsion in glass tubes; assay type: cell-based; conditions: medium without detergents
[5] = system: S. enteritidis; assay: Fluorescence of Aldol 495 nonanoate in nutrient broth cultures; conditions: for Fluorescence values: S. enteritidis

With `CCCCCCCCC(=O)Oc1cn(-c2ccccc2C(=O)c2cccn2C)c2cc(Cl)ccc12` [Aldol™ 495 nonanoate] the Fluorescence values ([1]; stock solution 50 mM, 0 h) was 424 RFU, the Fluorescence values ([1]; stock solution 50 mM, 12 h) was 463 RFU and the Fluorescence values ([1]; stock solution 50 mM, 18 h) was 551 RFU. The Fluorescence values ([1]; stock solution 50 mM, 48 h) was 1710 RFU, the Fluorescence values ([1]; stock solution 50 mM, 120 h) was 3851 RFU and the Fluorescence values ([1]; stock solution 200 mM, 0 h) was 444 RFU. It also gave a Fluorescence values ([1]; stock solution 200 mM, 12 h) of 404 RFU, a Fluorescence values ([1]; stock solution 200 mM, 18 h) of 468 RFU and a Fluorescence values ([1]; stock solution 200 mM, 48 h) of 774 RFU. It also gave a Fluorescence values ([1]; stock solution 200 mM, 120 h) of 1924 RFU, a Fluorescence values ([2]; stock solution 50 mM, 0 h) of 392 RFU and a Fluorescence values ([2]; stock solution 50 mM, 12 h) of 445 RFU. It also gave a Fluorescence values ([2]; stock solution 50 mM, 18 h) of 434 RFU, a Fluorescence values ([2]; stock solution 50 mM, 48 h) of 511 RFU and a Fluorescence values ([2]; stock solution 50 mM, 120 h) of 523 RFU. It also gave a Fluorescence values ([2]; stock solution 200 mM, 0 h) of 433 RFU, a Fluorescence values ([2]; stock solution 200 mM, 12 h) of 399 RFU and a Fluorescence values ([2]; stock solution 200 mM, 18 h) of 411 RFU. The Fluorescence values ([2]; stock solution 200 mM, 48 h) was 422 RFU, the Fluorescence values ([2]; stock solution 200 mM, 120 h) was 455 RFU and the Specificity of fluorescence [3] was “specific for Salmonella strains”. The “Fluorescence of Salmonella culture” value [4] was “yellow green fluorescence”, the “Fluorescence signal, indicator added from 20 mM stock solution versus 200 mM stock solution” value [5] was “stronger fluorescence signal” and the Fluorescence values ([5]; stock solution 50 mM, 0 h) was 406 RFU. For the same molecule, the Fluorescence values ([5]; stock solution 50 mM, 12 h) was 2922 RFU, the Fluorescence values ([5]; stock solution 50 mM, 18 h) was 10047 RFU and the Fluorescence values ([5]; stock solution 50 mM, 48 h) was 45027 RFU. The Fluorescence values ([5]; stock solution 50 mM, 120 h) was 13424 RFU, the Fluorescence values ([5]; stock solution 200 mM, 0 h) was 412 RFU and the Fluorescence values ([5]; stock solution 200 mM, 12 h) was 1812 RFU. The Fluorescence values ([5]; stock solution 200 mM, 18 h) was 3449 RFU, the Fluorescence values ([5]; stock solution 200 mM, 48 h) was 8403 RFU and the Fluorescence values ([5]; stock solution 200 mM, 120 h) was 5169 RFU.
